This is an account of results in patent publication US20070037840A1, “Tricyclic benzimidazoles” (Altana Pharma AG, priority 2003, published 2007).

What is called melting point is the temperature, or range, at which the solid turns liquid.

Series [1] relates to pentagastrin-stimulated acid secretion of the perfused rat stomach. Kind of series: Secretion-inhibiting action on the perfused rat stomach (pentagastrin-stimulated acid secretion). Particulars: anesthetized CD rat, dose 2.0 μmol/kg i.d. In kind it is in vivo. The text has this:
Testing of the Secretion-Inhibiting Action on the Perfused Rat Stomach
In Table A which follows, the influence of the compounds of the formula 1 according to the invention on the pentagastrin-stimulated acid secretion of the perfused rat stomach after intraduodenal administration in vivo is shown.
The abdomen of anesthetized rats (CD rat, female, 200-250 g; 1.5 g/kg i.m. urethane) was opened after tracheotomy by a median upper abdominal incision and a PVC catheter was fixed transorally in the esophagus and another via the pylorus such that the ends of the tubes just projected into the gastric lumen. The catheter leading from the pylorus led outward into the right abdominal wall through a side opening.
After thorough rinsing (about 50-100 ml), warm (37° C.) physiological NaCl solution was continuously passed through the stomach (0.5 ml/min, pH 6.8-6.9; Braun-Unita I). The pH (pH meter 632, glass electrode EA 147; φ=5 mm, Metrohm) and, by titration with a freshly prepared 0.01N NaOH solution to pH 7 (Dosimat 665 Metrohm), the secreted HCl were determined in the effluent in each case collected at an interval of 15 minutes.
The gastric secretion was stimulated by continuous infusion of […] (=1.65 ml/h) of i.v. pentagastrin (left femoral vein) about 30 min after the end of the operation (i.e. after determination of 2 preliminary fractions). The substances to be tested were administered intraduodenally in a 2.5 ml/kg liquid volume 60 min after the start of the continuous pentagastrin infusion. The body temperature of the animals was kept at a constant 37.8-38° C. by infrared irradiation and heat pads (automatic, stepless control by means of a rectal temperature sensor).

For `COCCO[C@@H]1c2ccc3c(nc(C)n3C)c2N[C@H](c2ccccc2)[C@H]1O` [Example 1, (6R,7R,8R)-2,3-Dimethyl-7-hydroxy-6-(2-methoxyethoxy)-8-phenyl-6,7,8,9-tetrahydro-3H-imidazo[4,5h]quinoline], in series [1], the “Inhibition of acid secretion” value was above 50%.

In the case of `Cc1nc2c3c(ccc2n1C)[C@@H](O)[C@H](O)[C@@H](c1ccccc1)N3` [Example 5, (6R,7R,8R)-2,3-Dimethyl-6,7-dihydroxyl-8-phenyl-6,7,8,9-tetrahydro-3H-imidazo[4,5-h]quinoline], the melting point was 224.7 °C. In addition, the “Inhibition of acid secretion” value in series [1] is above 50%.

In the case of `Cc1nc2c3c(ccc2n1C)[C@@H](OCC(F)F)[C@H](O)[C@@H](c1ccccc1)N3` [Example 7, (6R,7R,8R)-2,3-Dimethyl-7-hydroxy-6-(2,2-difluoroethoxy)-8-phenyl-6,7,8,9-tetrahydro-3H-imidazo[4,5-h]quinoline], the “Inhibition of acid secretion” value in series [1] is given as above 50%.

For the compound `COCCO[C@H]1c2ccc3c(nc(C)n3C)c2N[C@H](c2ccccc2)[C@H]1O` [Example 2, (6S,7R,8R)-2,3-Dimethyl-7-hydroxy-6-(2-methoxyethoxy)-8-phenyl-6,7,8,9-tetrahydro-3H-imidazo[4,5-]quinoline], in series [1], the “Inhibition of acid secretion” value is below 50%.

For the compound `CCO[C@H]1c2ccc3c(nc(C)n3C)c2N[C@H](c2ccccc2)[C@H]1O` [Example 4, (6S,7R,8R)-2,3-Dimethyl-6-ethoxy-7-hydroxy-8-phenyl-6,7,8,9-tetrahydro-3H-imidazo[4,5-h]-quinoline], the melting point was 169.9 °C. In addition, the “Inhibition of acid secretion” value in series [1] is below 50%.

The compound `Cc1nc2c3c(ccc2n1C)[C@H](O)[C@H](O)[C@@H](c1ccccc1)N3` [Example 6, (6S,7R,8R)-2,3-Dimethyl-6,7-dihydroxy-8-phenyl-6,7,8,9tetrahydro-3H-imidazo[4,5-h]quinoline] displayed a melting point of 235.4 °C. Moreover, in series [1], the “Inhibition of acid secretion” value was below 50%.

On to `CCO[C@@H]1c2ccc3c(nc(C)n3C)c2N[C@H](c2ccccc2)[C@H]1O` [Example 3, (6R,7R,8R)-2,3-Dimethyl-6-ethoxy-7-hydroxy-8-phenyl-6,7,8,9-tetrehydro-3H-imidazo[4,5h]-quinoline], for which, in series [1], the “Inhibition of acid secretion” value is on record as above 50%.
